Measurements taken from patent publication US20190284168A1, “PYRAZOLE DERIVATIES AS SGC STIMULATORS” (IRONWOOD PHARMACEUTICALS, INC., priority 2014, published 2019).

Target: T1, soluble guanylate cyclase (sGC) (Homo sapiens, UniProt Q02108+Q02153)
T1 construct: endogenously expressing soluble guanylate cyclase (sGC); endogenous in cells; host or cells: HEK293
T1 sequence (Q02153 1-619): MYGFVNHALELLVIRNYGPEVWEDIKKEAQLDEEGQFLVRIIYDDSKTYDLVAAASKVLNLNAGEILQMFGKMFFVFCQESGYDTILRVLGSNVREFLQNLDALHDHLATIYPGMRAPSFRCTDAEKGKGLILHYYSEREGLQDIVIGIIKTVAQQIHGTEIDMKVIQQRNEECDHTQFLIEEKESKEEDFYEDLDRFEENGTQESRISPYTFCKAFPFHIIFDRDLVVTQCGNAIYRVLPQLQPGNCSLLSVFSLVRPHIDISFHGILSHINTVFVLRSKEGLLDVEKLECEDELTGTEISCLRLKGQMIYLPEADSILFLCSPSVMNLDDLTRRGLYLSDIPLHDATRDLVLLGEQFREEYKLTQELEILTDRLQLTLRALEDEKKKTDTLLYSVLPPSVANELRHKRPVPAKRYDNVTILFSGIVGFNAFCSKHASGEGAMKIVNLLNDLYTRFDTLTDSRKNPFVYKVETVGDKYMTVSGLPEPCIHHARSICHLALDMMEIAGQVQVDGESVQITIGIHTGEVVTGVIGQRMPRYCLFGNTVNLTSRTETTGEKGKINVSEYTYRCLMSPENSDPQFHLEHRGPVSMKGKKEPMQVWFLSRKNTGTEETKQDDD
T1 sequence (Q02108 1-690): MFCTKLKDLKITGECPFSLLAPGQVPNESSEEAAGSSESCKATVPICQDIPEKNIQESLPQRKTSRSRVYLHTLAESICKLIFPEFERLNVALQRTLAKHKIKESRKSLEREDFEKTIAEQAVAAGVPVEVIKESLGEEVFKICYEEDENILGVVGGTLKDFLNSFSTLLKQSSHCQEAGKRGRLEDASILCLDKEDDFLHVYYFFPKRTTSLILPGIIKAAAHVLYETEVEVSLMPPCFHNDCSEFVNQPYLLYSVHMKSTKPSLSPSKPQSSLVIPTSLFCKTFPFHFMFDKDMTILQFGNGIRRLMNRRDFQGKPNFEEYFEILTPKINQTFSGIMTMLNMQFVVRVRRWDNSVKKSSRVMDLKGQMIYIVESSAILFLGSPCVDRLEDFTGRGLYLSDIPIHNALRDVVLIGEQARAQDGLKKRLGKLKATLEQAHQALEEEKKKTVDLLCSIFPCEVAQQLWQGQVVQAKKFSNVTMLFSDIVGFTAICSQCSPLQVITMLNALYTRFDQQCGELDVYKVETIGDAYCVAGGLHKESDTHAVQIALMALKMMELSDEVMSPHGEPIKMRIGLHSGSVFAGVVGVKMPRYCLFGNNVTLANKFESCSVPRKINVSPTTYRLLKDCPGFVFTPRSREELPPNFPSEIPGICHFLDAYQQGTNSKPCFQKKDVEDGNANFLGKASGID
Assay: sGC-HEK-cGMP assay with LC/MS detection
Format: cell-based
Settings: HEK293 whole cells, LC/MS detection of cGMP, 10 μM DETA-NONOate; 50% of high control response (30 μM Compound Y); read-out: Absolute EC50 (nM)- binned (~)
Protocol: Human embryonic kidney cells (HEK293), endogenously expressing soluble guanylate cyclase (sGC), were used to evaluate the activity of test compounds. Compounds stimulating the sGC enzyme should cause an increase in the intracellular concentration of cGMP. HEK 293 cells were seeded in Dulbecco's Modification of Eagle's Medium supplemented with fetal bovine serum (10% final) and penicillin (100 U/mL)/streptomycin (100 μg/mL) in a 50 μL volume at a density of 1.5×10^4 cells/well in a poly-D-lysine coated 384 well flat bottom plate. Cells were incubated overnight at 37° C. in a humidified chamber with 5% CO2. Medium was aspirated and cells were washed with 1× Hank's Buffered Saline Salt Solution (50 μL). Cells were then incubated for 15 minutes at 37° C. with 50 μL of a 0.5 mM 3-isobutyl-1-methylxanthine (IBMX) solution.
were then added to the assay mixture and the resulting mixture incubated at 37° C. for 20 minutes. After the 20 minute incubation, the assay mixture was aspirated and 10% acetic acid containing 150 ng/mL+3-cGMP (internal standard for LCMS) (50 μL) was added to the cells. The plate was incubated at 4° C. for 30 minutes in the acetic acid solution to stop the reaction and lyse the cells. The plates were then centrifuged at 1,000 g for 3 minutes at 4° C. and the supernatant transferred to a clean reaction plate for LCMS analysis.
cGMP concentrations were determined from each sample using the LCMS conditions below (Table 2) and calculated standard curve.
Data were fit using a 4-parameter fit (log(agonist) vs. response—variable slope) using GraphPad Prism Software v.5. n=2 for all compounds. […] Compounds failing to elicit a minimum response of 50% are reported as >30 μM.

SMILES	EC50 [nM]
CC(=O)c1cc(-c2ncc(F)c(NCC(O)CO)n2)nn1Cc1ccccc1F (stereo not drawn) [Compound 180]	100 to 1000
CC(C)(C(N)=O)C(=O)Nc1nc(-c2cc(-c3ccon3)n(Cc3ccccc3F)n2)ncc1F [Compound 48]	> 1000
CC(=O)c1cc(-c2ncc(F)c(N3CCOCC3)n2)nn1Cc1ccccc1F [Compound 95]	100 to 1000
CC(=O)c1cc(-c2ncc(F)c(N3CC(C)C(C(=O)O)C3)n2)nn1Cc1ccccc1F (stereo not drawn) [Compound 89]	100 to 1000
CC(C(N)=O)C(=O)Nc1ccnc(-c2cc(-c3ccon3)n(Cc3ccccc3F)n2)n1 (stereo not drawn) [Compound 35]	> 1000
O=C(NNC(=O)C(F)(F)F)Nc1nc(-c2cc(-c3ccon3)n(Cc3ccccc3F)n2)ncc1F [Compound 13]	> 1000
CC(C)C[C@H](CO)Nc1nc(-c2cc(-c3ccon3)n(Cc3ccccc3F)n2)ncc1F [Compound 149, (R)-2-((5-fluoro-2-(1-(2-fluorobenzyl)-5-(isoxazol-3-yl)-1H-pyrazol-3-yl)pyrimidin-4-yl)amino)-4-m ethylpentan-1-ol]	< 100
Fc1ccccc1Cn1nc(-c2ncc(F)c(N3CCCCO3)n2)cc1-c1ccon1 [Compound 34]	100 to 1000
CC1(C(=O)Nc2ccnc(-c3cc(-c4ccon4)n(Cc4ccccc4F)n3)n2)CCNC1=O (stereo not drawn) [Compound 59]	100 to 1000
CC(=O)c1cc(-c2ncc(F)c(NCCS(N)(=O)=O)n2)nn1Cc1ccccc1F [Compound 76]	100 to 1000
CCOC(=O)CCNc1nc(-c2cc(-c3ccon3)n(Cc3ccccc3F)n2)ncc1F [Compound 165, ethyl 3-((5-fluoro-2-(1-(2-fluorobenzyl)-5-(isoxazol-3-yl)-1H-pyrazol-3-yl)pyrimidin-4-yl)amino)propanoate]	100 to 1000
CC(=O)c1cc(-c2ncc(F)c(N3CCC(C(=O)O)(c4ccccc4)CC3)n2)nn1Cc1ccccc1F [Compound 139, 1-(2-(5-acetyl-1-(2-fluorobenzyl)-1H-pyrazol-3-yl)-5-fluoropyrimidin-4-yl)-4-phenylpiperidine-4-carboxylic acid]	100 to 1000
C=CCN(C)c1nc(-c2cc(-c3ccon3)n(Cc3ccccc3F)n2)ncc1F [Compound 166, N-allyl-5-fluoro-2-(1-(2-fluorobenzyl)-5-(isoxazol-3-yl)-1H-pyrazol-3-yl)-N-methylpyrimidin-4-amine]	> 1000
C[C@@](CNc1nc(-c2cc(-c3ccon3)n(Cc3ccccc3F)n2)ncc1F)(N[C@@H](CO)c1ccccc1)C(F)(F)F [Compound 107]	< 100
NC(=O)C(F)(F)CNc1nc(-c2cc(-c3ccon3)n(Cc3ccccc3F)n2)ncc1F [Compound 15]	< 100
O=C(CCNc1nc(-c2cc(-c3ccon3)n(Cc3ccccc3F)n2)ncc1F)OCCN1CCOCC1 [Compound 162, 2-morpholinoethyl 3-((5-fluoro-2-(1-(2-fluorobenzyl)-5-(isoxazol-3-yl)-1H-pyrazol-3-yl)pyrimidin-4-yl)amino)propanoate]	100 to 1000
CC(N)(CNc1nc(-c2cc(-c3ccon3)n(Cc3ccccc3F)n2)ncc1F)C1CC1 (stereo not drawn) [Compound 67]	100 to 1000
CC(=O)c1cc(-c2ncc(F)c(N3CCC(O)C(CO)C3)n2)nn1Cc1ccccc1F (stereo not drawn) [Compound 117]	100 to 1000
CC(=O)c1cc(-c2ncc(F)c(N[C@@H](CO)C(N)=O)n2)nn1Cc1ccccc1F [Compound 194, (S)-2-((2-(5-acetyl-1-(2-fluorobenzyl)-1H-pyrazol-3-yl)-5-fluoropyrimidin-4-yl)amino)-3-hydroxypropanamide]	> 1000
CCC(C)(N)CNc1nc(-c2cc(C(C)=O)n(Cc3ccccc3F)n2)ncc1F (stereo not drawn) [Compound 129, 1-(3-(4-((2-amino-2-methylbutyl)amino)-5-fluoropyrimidin-2-yl)-1-(2-fluorobenzyl)-1H-pyrazol-5-yl)ethanone]	> 1000
CC(C)(C(N)=O)C(=O)Nc1ccnc(-c2cc(-c3ccon3)n(Cc3ccccc3F)n2)n1 [Compound 51]	100 to 1000
CN(C)c1cc(-c2ncc(F)c(O)n2)nn1Cc1ccccc1F [Compound 81]	> 1000
CC(=O)c1cc(-c2ncc(F)c(N3CCNCC3)n2)nn1Cc1ccccc1F [Compound 94]	> 1000
COCc1cc(-c2ncc(F)c(NCC(O)(C(N)=O)C(F)(F)F)n2)nn1Cc1ccccc1F (stereo not drawn) [Compound 20]	> 30000

SMILES	EC50 [nM]
NC1(CNc2nc(-c3cc(-c4ccon4)n(Cc4ccccc4F)n3)ncc2F)CC1 [Compound 68]	100 to 1000
CC(=O)c1cc(-c2ncc(F)c(N3CC[C@H](O)[C@H](O)C3)n2)nn1Cc1ccccc1F [Compound 116]	100 to 1000
CC(C)(C(=O)O)C(=O)Nc1ccnc(-c2cc(-c3ccon3)n(Cc3ccccc3F)n2)n1 [Compound 49]	> 1000
OCC(CCCC(F)(F)F)Nc1nc(-c2cc(-c3ccon3)n(Cc3ccccc3F)n2)ncc1F (stereo not drawn) [Compound 127, 6,6,6-trifluoro-2-((5-fluoro-2-(1-(2-fluorobenzyl)-5-(isoxazol-3-yl)-1H-pyrazol-3-yl)pyrimidin-4-yl)amino)hexan-1-ol]	< 100
OCC(O)CNc1cnc(-c2cc(-c3ccon3)n(Cc3ccccc3F)n2)nc1 (stereo not drawn) [Compound 21]	> 1000
O=C(Cc1cc(=O)o[nH]1)Nc1ccnc(-c2cc(-c3ccon3)n(Cc3ccccc3F)n2)n1 [Compound 75]	100 to 1000
CC(=O)c1cc(-c2ncc(F)c(NC3CCCCC3C(=O)O)n2)nn1Cc1ccccc1F (stereo not drawn) [Compound 123]	100 to 1000
CC(=O)c1cc(-c2ncc(F)c(N3CC4(COC4)C3)n2)nn1Cc1ccccc1F [Compound 118]	> 1000
CC(=O)c1cc(-c2ncc(F)c(Nc3nnc(C(F)(F)F)s3)n2)nn1Cc1ccccc1F [Compound 126]	> 30000
C[C@H]1CCCN(c2nc(-c3cc(-c4ccon4)n(Cc4ccccc4F)n3)ncc2F)[C@H]1C(=O)OCCN1CCOCC1 [Compound 157, (2R,3S)-2-morpholinoethyl 1-(5-fluoro-2-(1-(2-fluorobenzyl)-5-(isoxazol-3-yl)-1H-pyrazol-3-yl)pyrimidin-4-yl)-3-methylpiperidine-2-carboxylate]	> 1000
OCCNc1cnc(-c2cc(-c3ccon3)n(Cc3ccccc3F)n2)nc1 [Compound 8]	100 to 1000
NCCNc1cnc(-c2cc(-c3ccon3)n(Cc3ccccc3F)n2)nc1 [Compound 9]	> 1000
NC(=O)C(O)(CNc1nc(-c2cc(-c3ncco3)n(Cc3ccccc3F)n2)ncc1F)C(F)(F)F (stereo not drawn) [Compound 102]	100 to 1000
CC(=O)c1cc(-c2ncc(F)c(NC[C@@H](C(=O)O)C(C)C)n2)nn1Cc1ccccc1F [Compound 72]	100 to 1000
O=c1n(-c2nc(-c3cc(-c4ccon4)n(Cc4ccccc4F)n3)ncc2F)nc2n1CCNC2 [Compound 43]	> 1000
CC(=O)c1cc(-c2ncc(F)c(N(C)CC3(C(N)=O)CC3)n2)nn1Cc1ccccc1F [Compound 99]	100 to 1000
CC(=O)c1cc(-c2ncc(F)c(N3CCS(=O)(=O)C(C)(C)C3)n2)nn1Cc1ccccc1F [Compound 115]	> 1000
CC(C)CC(C)(N)CNc1nc(-c2cc(-c3ccon3)n(Cc3ccccc3F)n2)ncc1F (stereo not drawn) [Compound 156, N1-(5-fluoro-2-(1-(2-fluorobenzyl)-5-(isoxazol-3-yl)-1H-pyrazol-3-yl)pyrimidin-4-yl)-2,4-dimethylpentane-1,2-diamine]	100 to 1000
CCOC(=O)[C@H](CN(C)c1nc(-c2cc(C(C)=O)n(Cc3ccccc3F)n2)ncc1F)C(C)C [Compound 74]	100 to 1000
CC(C)(NC(=O)OCc1ccccc1)C(=O)Nc1ccnc(-c2cc(-c3ccon3)n(Cc3ccccc3F)n2)n1 [Compound 5]	> 1000
NC(=O)CNc1cnc(-c2cc(-c3ccon3)n(Cc3ccccc3F)n2)nc1 [Compound 6]	> 1000
CC(=O)c1cc(-c2ncc(F)c(N3CCNC(=O)C3)n2)nn1Cc1ccccc1F [Compound 77]	> 1000
Cc1nnc(C(O)(CNc2nc(-c3cc(-c4ccon4)n(Cc4ccccc4F)n3)ncc2F)C(F)(F)F)o1 (stereo not drawn) [Compound 52]	< 100
CC(=O)c1cc(-c2ncc(F)c(N3CCC4(CC3)COC4)n2)nn1Cc1ccccc1F [Compound 113]	100 to 1000
